In patent US10945978B2, “Treatment and diagnosis of melanoma” (The Rockefeller University, priority 2012, dated 2021):
Counter-ions that a name gives are not always drawn.

Test system: B16F10 parental and DTIC-resistant cells
Assay: Tumor growth by DTIC-sensitive and DTIC-resistant B16F10 cells
Format: in vivo, mouse
Conditions: chow supplemented with GW3965 100 mg/kg
Experimental: First, the cells were treated with 500 μg/mL DTIC for one week. Following this initial DTIC treatment, the remaining (˜10%) viable cells were allowed to recover for one week, after which 750 rag/mL of DTIC was added to the cell media for 5 days. Subsequent to this high-dose treatment, the cells were allowed to recover in the presence of low-dose DTIC (100 jag/mL) for one week. The cells were then continuously cultured in cell media containing 200 rag/mL DTIC for at least one month prior to grafting the cells into mice. DTIC was added to fresh cancer cell media every 3 days.

O=C(O)Cc1cccc(OCCCN(Cc2cccc(C(F)(F)F)c2Cl)CC(c2ccccc2)c2ccccc2)c1 [GW3965 2, 3-[3-[N-(2-Chloro-3-trifluoromethylbenzyl)-(2,2-diphenylethyl)amino]propyloxy] phenylacetic acid hydrochloride]
suppression of tumor growth by the DTIC-resistant B16F10 clone: more than 70%
